Experimental findings from patent US20130029981A1, “COMPOUNDS, COMPOSITIONS, AND METHODS FOR CONTROLLING BIOFILMS” (Katholieke Universiteit Leuven, priority 2009, published 2013) are described below.

Where two headings read alike, the source gives them in different places.

For test [1], the system named is Pseudomonas aeruginosa PA14. As to the kind of experiment: Static peg assay for prevention of biofilm formation (Calgary device, crystal violet). In kind it is cell-based. Particulars: 25° C. The procedure:
(§1) Evaluation of the biofilm inhibitory activity of some substituted 2-amino-1H-imidazoles of the invention was carried out by growing up biofilms of S. Typhimurium ATCC14028 or SL1344 or Pseudomonas aeruginosa PA14 in the presence of different concentrations (1/2 dilution series) of biofilm inhibitors, by using the Calgary biofilm device. After an incubation period of 24 hours at 25° C. or 37° C. or 48 hours at 16° C. the biofilms were visualized by crystal violet staining. In the next step the stain was extracted from the biofilm with 30% acetic acid. The absorbance of the resolubilized stain at 570 nm is a measure of the amount of biofilm formed.
The device used for Pseudomonas aeruginosa biofilm formation is the same platform carrying polystyrene pegs as described above for Salmonella Typhimurium.
Two-fold serial dilutions of the compounds in 100 μl liquid broth per well were prepared in the microtiter plate. Subsequently, an overnight culture of P. aeruginosa PA14 (grown up in TSB medium) was diluted 1:100 into liquid broth and 100 μl was added to each well of the microtiter plates, resulting in a total amount of 200 μl medium per well. The pegged lid was placed on the microtiter plate and the plate was incubated for 24 hours at 25° C., 30° C. or 37° C. without shaking. During this incubation period biofilms were formed on the surface of the pegs. The liquid broth used for the tests at 25° C. was TSB 1/20. The tests at 37° C. were performed in CFA and/or LBNS broth. During incubation at 30° C. and 37° C. the plates were placed in a humidity controlled container to prevent evaporation of the growth medium. Quantification of biofilm formation was performed similarly as described previously for the S. Typhimurium biofilm assays.
as §1, with “imidazo[1,2-a]pyrimidinium bromide salts” for “2-amino-1H-imidazoles”
as §1, with “substituted imidazo[1,2-a]-pyrimidinium bromide and perchlorate salts produced according to examples 3 and 5” for “substituted 2-amino-1H-imidazoles of the invention”, “C.” for “C. or 37° C. or 48 hours at 16° C.”, “nm was taken as” for “nm is”

Test [2] deals with S. Typhimurium ATCC14028. The description is as above. It counts as cell-based, Salmonella Typhimurium. Conditions: 25° C. The procedure:
as §1
In examples 2 and 3, the following materials and methods were used.
The device used for biofilm formation is a platform carrying 96 polystyrene pegs (Nunc no. 445497) that fits as a microtiter plate lid with a peg hanging into each microtiter plate well (Nunc no. 269789). Biofilm formation assays were carried out at 16° C., 25° C. and 37° C.
For biofilm assays at 16° C. and 25° C., two-fold serial dilutions of the compounds in 100 μl liquid TSB 1/20 broth per well were prepared in the microtiter plate. Subsequently, an overnight culture of S. Typhimurium ATCC14028 or SL1344 (grown up in LB medium) was diluted 1:100 into TSB 1/20 broth and 100 μl (ca. 10^6 cells) was added to each well of the microtiter plates, resulting in a total amount of 200 μl medium per well. The pegged lid was placed on the microtiter plate and the plate was incubated for 48 hours at 16° C. or for 24 hours at 25° C. without shaking. During this incubation period biofilms were formed on the surface of the pegs. In case of the assay at 16° C., after 24 hours the lid was transferred into a new plate with medium and the specific molecules used for testing. […] For quantification of biofilm formation, the pegs were washed once in 200 μl phosphate buffered saline (PBS). The remaining attached bacteria were stained for 30 minutes with 200 μl 0.1% (w/v) crystal violet in an isopropanol/methanol/PBS solution (v/v 1:1:18). Excess stain was rinsed off by placing the pegs in a 96-well plate filled with 200 μl distilled water per well. After the pegs were air dried (30 min), the dye bound to the adherent cells was extracted with 30% glacial acetic acid (200 μl). The OD570 of each well was measured using the VERSAmax microtiter plate reader. The IC50 value for each compound was determined from concentration gradients in two or three independent experiments (with 2 or 3 repeats per experiment), by using the GraphPad software of Prism.
For biofilm assays at 37° C., two-fold serial dilutions of the compounds in 50 μl liquid CFA broth per well were prepared in the microtiter plate. Subsequently, an overnight culture of S. Typhimurium ATCC 14028 was diluted 1:100 into CFA broth and 100 μl (ca. 10^6 cells) was added to each well of the microtiter plates, resulting in a total amount of 150 μl medium per well. The pegged lid was placed on the microtiter plate and the plate was incubated for 24 hours at 37° C. without shaking. During incubation the plates were placed in a humidity controlled container to prevent evaporation of the growth medium. Quantification of biofilm formation was performed similarly as described above for the assays at 16° C. and 25° C.
as §1, with “imidazo[1,2-a]pyrimidinium bromide salts” for “2-amino-1H-imidazoles”

Where [3] appears, read: Table 16, read-out: P. aeruginosa IC50 (biofilm formation).
[4] abbreviates: Table 16, read-out: S. Typhimurium IC50 (biofilm formation).
[5] abbreviates: 24 hours, Table 15, read-out: (2) IC50 (biofilm inhibition).
Where [6] appears, read: 24 hours, Table 15, read-out: (1) IC50 (biofilm inhibition).
Setting [7] is: strain not given, read-out: IC(50), preventive activity against S. typhimurium biofilms.

Regarding `CN1c2nccc[n+]2CC1(O)c1ccccc1` (racemic) [Compound 1], the IC50 in test [1] (setting [3]) is 212 µM; in test [2] (setting [4]) it was more than 800 µM.
With `CC(C)N1c2nccc[n+]2CC1(O)c1ccccc1` (racemic) [Compound 2], the figures for the IC50 in test [1] (setting [3]) and in test [2] (setting [4]) were more than 400 µM and 540 µM, respectively.
`CCCCN1c2nccc[n+]2CC1(O)c1ccccc1` (racemic) [Compound 3]: the IC50 was more than 400 µM in test [1] (setting [3]) and 410 µM in test [2] (setting [4]).
The corresponding values for `CC(C)CN1c2nccc[n+]2CC1(O)c1ccccc1` (racemic) [Compound 4] are 289 µM and 131 µM.
For the compound `CCCCCN1c2nccc[n+]2CC1(O)c1ccccc1` (racemic) [Compound 5], the IC50 turned out to be 565 µM in test [1] (setting [3]) and 278 µM in test [2] (setting [4]).
Turning to `CCCCCCN1c2nccc[n+]2CC1(O)c1ccccc1` (racemic) [Compound 6], the IC50 in test [1] (setting [5]) was 3.13 µM; in test [1] (setting [3]) it was 406 µM; in test [2] (setting [6]), 102 µM; in test [2] (setting [4]), 102 µM.
As for `CCCCCCCN1c2nccc[n+]2CC1(O)c1ccccc1` (racemic) [Compound 7], the IC50 in test [1] (setting [5]) is 5.89 µM; in test [1] (setting [3]), 24.8 µM; in test [2] (setting [6]), 23.4 µM; in test [2] (setting [4]) it was 23.4 µM.
With `CCCCCCCCN1c2nccc[n+]2CC1(O)c1ccccc1` (racemic) [Compound 8], the IC50 in test [1] (setting [5]) worked out at 11.2 µM; in test [1] (setting [3]) it was 18.9 µM; in test [2] (setting [6]), 9.77 µM; in test [2] (setting [4]), 9.8 µM.
Consider `CCCCCCCCCN1c2nccc[n+]2CC1(O)c1ccccc1` (racemic) [Compound 9], for which the IC50 in test [1] (setting [5]) amounted to 4.85 µM; in test [1] (setting [3]), 55.7 µM; in test [2] (setting [6]) it was 8.26 µM; in test [2] (setting [4]), 8.3 µM.
Turning to `CCCCCCCCCCN1c2nccc[n+]2CC1(O)c1ccccc1` (racemic) [Compound 10], the IC50 in test [1] (setting [5]) was found to be 3.95 µM; in test [1] (setting [3]), 47 µM; in test [2] (setting [6]), 15 µM; in test [2] (setting [4]), 15 µM.
In the case of `COc1ccc(CN2c3nccc[n+]3CC2(O)c2ccc([N+](=O)[O-])cc2)cc1` (stereo not shown) [R1=p-MeOBn, R3=4-NO2-Ph, R4=H, 1-(4-methoxybenzyl)-2-hydroxy-2-(4-nitrophenyl)-2,3-dihydro-1H-imidazo[1,2-a]pyrimidin-4-ium bromide], the IC50 in test [2] (Salmonella enterica, Table 11, read-out: IC50 (biofilm formation)) was 220 µM; in test [2] (Salmonella enterica, Table 14, read-out: IC50 biofilm inhibition), 220 µM.
Regarding `Clc1ccc(-c2cnc(NCCn3cc(C4CCCCC4)nn3)[nH]2)cc1Cl` [R3=3,4-diClPh; R4=H; R9=c-hexyl; n=2], the IC50 in test [2] (setting [7]) came to 55.2 µM.
Still for that read-out and setting: the result for `Clc1ccc(-c2cnc(NCCCn3cc(C4CCCCC4)nn3)[nH]2)cc1Cl` [R3=3,4-diClPh; R4=H; R9=c-hexyl; n=3] reads 26.8 µM; that for `CC(C)(C)c1ccc(-c2cn(CCCNc3ncc(-c4ccc(Cl)c(Cl)c4)[nH]3)nn2)cc1` [R3=3,4-diClPh; R4=H; R9=p(t-Bu)Ph; n=3], 17.8 µM; that for `COc1ccc(-c2cn(CCNc3ncc(-c4ccc(Cl)c(Cl)c4)[nH]3)nn2)cc1` [R3=3,4-diClPh; R4=H; R9=p-MeOPh; n=2], more than 800 µM.
Regarding `CCCc1cn(CCNc2ncc(-c3ccc(Cl)c(Cl)c3)[nH]2)nn1` [R3=3,4-diClPh; R4=H; R9=propyl; n=2], in test [2] (setting [7]), the IC50 came out at 35.6 µM.
For `CCCc1cn(CCCNc2ncc(-c3ccc(Cl)c(Cl)c3)[nH]2)nn1` [R3=3,4-diClPh; R4=H; R9=propyl; n=3], the IC50 in test [2] (setting [7]) was found to be 31.8 µM.
On the same count and under the same terms, the result for `Clc1ccc(-c2cnc(NCCCn3cc(-c4ccsc4)nn3)[nH]2)cc1Cl` [R3=3,4-diClPh; R4=H; R9=thiofuran; n=3] reads 2 µM; that for `CC(C)(N)c1cn(CCCNc2ncc(-c3ccc(Br)cc3)[nH]2)nn1` [R3=4-BrPh; R4=H; R9=C(CH3)2(NH2); n=3], 30.9 µM; that for `Brc1ccc(-c2cnc(NCCn3cc(C4CCCCC4)nn3)[nH]2)cc1` [R3=4-BrPh; R4=H; R9=c-hexyl; n=2], 8.4 µM.
With `Brc1ccc(-c2cnc(NCCn3cc(C4CC4)nn3)[nH]2)cc1` [R3=4-BrPh; R4=H; R9=c-propyl; n=2], the IC50 in test [2] (setting [7]) is 2.02 µM.
As to `CCCCCCCc1cn(CCNc2ncc(-c3ccc(Br)cc3)[nH]2)nn1` [R3=4-BrPh; R4=H; R9=heptyl; n=2], the IC50 in test [2] (setting [7]) stood at 189 µM.
Turning to `Cc1ccc(-c2cn(CCNc3ncc(-c4ccc(Br)cc4)[nH]3)nn2)cc1` [R3=4-BrPh; R4=H; R9=p-MePh; n=2], in test [2] (setting [7]), the IC50 is more than 800 µM.
Still for that read-out and setting: the result for `CCCCCc1ccc(-c2cn(CCCNc3ncc(-c4ccc(Br)cc4)[nH]3)nn2)cc1` [R3=4-BrPh; R4=H; R9=p-PenPh; n=3] reads more than 800 µM; that for `COc1ccc(-c2cn(CCNc3ncc(-c4ccc(Br)cc4)[nH]3)nn2)cc1` [R3=4-BrPh; R4=H; R9=pMeOPh; n=2], 91.2 µM.
On the same count and under the same terms, next, `CCCc1cn(CCNc2ncc(-c3ccc(Br)cc3)[nH]2)nn1` [R3=4-BrPh; R4=H; R9=propyl; n=2]: 25.3 µM.
For `CCCc1cn(CCCNc2ncc(-c3ccc(Br)cc3)[nH]2)nn1` [R3=4-BrPh; R4=H; R9=propyl; n=3], in test [2] (setting [7]), the IC50 worked out at 35.3 µM.
Take `Fc1ccc(-c2cnc(NCCn3cc(C4CCCC4)nn3)[nH]2)cc1` [R3=4-FPh; R4=H; R9=c-pentyl; n=2]: in test [2] (setting [7]), the IC50 is 128 µM.
For the compound `Fc1ccc(-c2cnc(NCCn3cc(C4CC4)nn3)[nH]2)cc1` [R3=4-FPh; R4=H; R9=c-propyl; n=2], the IC50 in test [2] (setting [7]) was found to be 93.3 µM.
On to `CC(C)(C)c1cn(CCNc2ncc(C(c3ccccc3)c3ccccc3)[nH]2)nn1` [R3=CHPh2; R4=H; R9=t-Butyl; n=2], for which, in test [2] (setting [7]), the IC50 turned out to be 30.9 µM.
Regarding `c1ccc(-c2cn(CCNc3ncc(-c4ccccc4)[nH]3)nn2)cc1` [R3=Ph; R4=H; R9=Phenyl; n=2], the IC50 in test [2] (setting [7]) is 36.5 µM.
On the same count and under the same terms, the result for `c1ccc(-c2cn(CCCNc3ncc(-c4ccccc4)[nH]3)nn2)cc1` [R3=Ph; R4=H; R9=phenyl; n=3] reads 40 µM; that for `CCCCCc1cn(CCNc2nc(-c3ccc(C)cc3)c(-c3ccc(Cl)cc3)[nH]2)nn1` [R3=p-ClPh; R4=p-MePh; R9=Pentyl; n=2], 371 µM; that for `Cc1ccc(-c2nc(NCCn3cc(C4CCCC4)nn3)[nH]c2-c2ccc(Cl)cc2)cc1` [R3=p-ClPh; R4=p-MePh; R9=c-Pentyl; n=2], 6.5 µM.
